Experimental data taken from patent publication US7868204B2, “Inhibitors of histone deacetylase” (MethylGene Inc., priority 2001, dated 2011).
Read-outs that look alike come from different tables or passages of the source.

Key:
[1] = tested on: acetylated histone H-4 in T24 human bladder cancer cells; assay: Histone H4 acetylation in whole cells by immunoblots; assay type: cell-based; conditions: 16 h
In short: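 Acetylated histone H4 was quantified by densitometry of ECL-developed immunoblots, probed with a polyclonal antibody, of […] total histone from T24 cultures exposed 16 h to HDAC inhibitors.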

[2] = target: T1, cloned recombinant human HDAC-1 (Homo sapiens, UniProt Q13547); assay: Human HDAC-1 enzyme inhibition, Assay 1 ([3H]-acetylated histone substrate, scintillation counting); assay type: biochemical
T1 construct: made in house; host or cells: Baculovirus insect cell expression system
T1 sequence (Q13547 whole entry): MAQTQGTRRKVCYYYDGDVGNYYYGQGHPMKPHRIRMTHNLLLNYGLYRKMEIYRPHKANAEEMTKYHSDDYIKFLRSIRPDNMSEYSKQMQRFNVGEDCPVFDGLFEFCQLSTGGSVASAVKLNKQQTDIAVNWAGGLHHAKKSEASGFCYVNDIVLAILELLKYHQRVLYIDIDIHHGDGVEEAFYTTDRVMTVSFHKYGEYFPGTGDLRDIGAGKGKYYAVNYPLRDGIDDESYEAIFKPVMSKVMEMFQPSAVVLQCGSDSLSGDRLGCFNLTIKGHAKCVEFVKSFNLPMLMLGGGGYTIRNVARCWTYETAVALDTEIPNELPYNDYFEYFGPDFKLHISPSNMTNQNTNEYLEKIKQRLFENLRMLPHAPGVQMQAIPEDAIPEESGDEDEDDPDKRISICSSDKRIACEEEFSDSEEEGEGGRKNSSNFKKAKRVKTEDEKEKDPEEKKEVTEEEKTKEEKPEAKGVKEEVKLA
In short: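 Activity read as [3H]-acetic acid liberated from labeled substrate, ethyl acetate-extracted and scintillation-counted. Compounds preincubated 30 min at 4° C. with baculovirus-expressed, purified human HDAC-1. Dose-response curves give IC50 as concentration producing fifty percent of maximal inhibition.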

HCT116 cells = assay: MTT assay; assay type: cell-based; conditions: Homo sapiens, HCT116 cells, 72 hours
In short: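 Read-out: MTT (0.5 mg/ml final, 4 h) after solubilization in 50% DMF/20% SDS, pH 4.7, with OD translated into cell number via the line's growth curve. Compound treatment lasted 72 h at 37 °C in 5% CO2, starting a day after plating.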

[3] = T-24, Table 5F, read-out: H4 Ac (T24) EC50
[4] = Table 5F, read-out: Human HDAC-1 IC50
[5] = T-24, Table 5d, read-out: H4Ac(T24) EC50
[6] = Table 5d, read-out: HDAC-1 IC50
[7] = T-24, Table 5a, read-out: H4Ac (T24) EC50
[8] = Table 5a, read-out: Human HDAC-1 IC50
[9] = T-24, Table 5c, read-out: H4Ac (T24) EC50
[10] = Table 5c, read-out: Human HDAC-1 IC50

Row | EC50 [1, 3] [nM] | IC50 [2, 4] [nM] | IC50 (HCT116 cells; HCT-116, 72 h, Table 5F) [nM] | Structure (SMILES) | further results
1 | 5000 | 5000 | 800 | Nc1ccccc1NC(=O)c1ccc(CNCCc2c[nH]c3ccccc23)cc1 [Cpd 436] | 
2 | 2000 | 4000 | 400 | Nc1ccccc1NC(=O)c1ccc(Cc2noc(-c3cccnc3)n2)cc1 [Cpd 357, N-(2-Amino-phenyl)-4-(5-pyridin-3-yl-[1,2,4]oxadiazol-3-ylmethyl)-benzamide] | 
3 | 2000 | 3000 | 200 | CN(C)c1nc2cc(NCc3ccc(C(=O)Nc4ccccc4N)cc3)ccc2s1 [Cpd 448, N-(2-Amino-phenyl)-4-[(2-dimethylamino-benzothiazol-5-ylamino)-methyl]-benzamide] | 
4 | 1000 | 3000 | 400 | Cc1nc2ccc(Br)cc2c(=O)n1Cc1ccc(C(=O)Nc2ccccc2N)cc1 [Cpd 342, N-(2-Amino-phenyl)-4-(6-bromo-2-methyl-4-oxo-4H-quinazolin-3-ylmethyl)-benzamide] | 
5 | 2000 | 4000 | 500 | COc1ccc(NC(=O)N(Cc2ccc(C(=O)Nc3ccccc3N)cc2)c2ccc(OC)c(OC)c2)cc1OC [Cpd 371, N-(2-Amino-phenyl)-4-[1,3-bis-(3,4-dimethoxy-phenyl)-ureidomethyl]-benzamide] | 
6 | 5000 | 2000 | 1000 | Nc1ccccc1NC(=O)c1ccc(CNc2nc(Cl)cc(Cl)n2)cc1 [Cpd 419, N-(2-Amino-phenyl)-4-[(4,6-dichloro-pyrimidin-2-ylamino)-methyl]-benzamide] | 
7 | 1000 | 2500 | 300 | COc1ccc(N(Cc2ccc(C(=O)Nc3ccccc3N)cc2)C(=O)Nc2ccc(Oc3ccccc3)cc2)cc1OC [Cpd 374, N-(2-Amino-phenyl)-4-[1-(3,4-dimethoxy-phenyl)-3-(4-phenoxy-phenyl)-ureidomethyl]-benzamide] | 
8 | 1000 | 4000 | 1000 | COc1cc(NCc2ccc(C(=O)Nc3ccccc3N)cc2)nc(OC)n1 [Cpd 392, N-(2-Amino-phenyl)-4-[(2,6-dimethoxy-pyrimidin-4-ylamino)-methyl]-benzamide] | 
9 | 1000 | 3000 | 600 | Cc1nc2ccccc2c(=O)n1Cc1ccc(C(=O)Nc2ccccc2N)cc1 [Cpd 337, N-(2-Amino-phenyl)-4-(2-methyl-4-oxo-4H-quinazolin-3-ylmethyl)-benzamide] | 
10 |  |  |  | Nc1ccccc1NC(=O)/C=C/c1ccc(NCCNc2ncccn2)nc1 [Cpd 521, N-(2-Amino-phenyl)-3-{6-[2-(pyrimidin-2-ylamino)-ethylamino]-pyridin-3-yl}-acrylamide] | EC50 [1, 5]: 10000 nM; IC50 [2, 6]: 5000 nM; IC50 (HCT116 cells; HCT-116, Table 5d): 2000 nM
11 | 1000 | 3000 | 2000 | CCCCn1cnc2c(NCc3ccc(C(=O)Nc4ccccc4N)cc3)nc(N)nc21 [Cpd 330, 4-[(2-Amino-9-butyl-9H-purin-6-ylamino)-methyl]-N-(2-amino-phenyl)-benzamide] | 
12 | 1000 | 4000 | 900 | COc1ccccc1NCc1ccc(C(=O)Nc2ccccc2N)cc1 [Cpd 429, N-(2-Amino-phenyl)-4-[(2-methoxy-phenylamino)-methyl]-benzamide] | 
13 | 3000 | 3000 | 1000 | Cc1cc(C)nc(NCc2ccc(C(=O)Nc3ccccc3N)cc2)n1 [Cpd 382, N-(2-Amino-phenyl)-4-[(4,6-dimethyl-pyrimidin-2-ylamino)-methyl]-benzamide] | 
14 | 1000 | 3000 | 1000 | COc1ccc(CNc2ccc(C(=O)Nc3ccccc3N)cc2)cc1 [Cpd 414, N-(2-Amino-phenyl)-4-(4-methoxy-benzylamino)-benzamide] | 
15 |  |  |  | Nc1nc(NCc2ccccc2)nc(NCc2ccc(C(=O)Nc3ccccc3N)cc2)n1 [Cpd 29, 4-[(4-Amino-6-benzylamino-[1,3,5]triazin-2-ylamino)-methyl]-N-(2-amino-phenyl)-benzamide] | EC50 [1, 7]: 1000 nM; IC50 [2, 8]: 2000 nM; IC50 (HCT116 cells; HCT-116, 72 h, Table 5a): 2000 nM
16 | 1000 | 17000 | 400 | COc1ccc(Nc2ccnc(NCc3ccc(C(=O)Nc4ccccc4N)cc3)n2)cc1OC [Cpd 442, N-(2-Amino-phenyl)-4-{[4-(3,4-dimethoxy-phenylamino)-pyrimidin-2-ylamino]-methyl}-benzamide] | 
17 | < 1000 | 3000 | 500 | Nc1ccccc1NC(=O)c1ccc(Cn2cnc3ccc(Br)cc3c2=O)cc1 [Cpd 346, N-(2-Amino-phenyl)-4-(6-bromo-4-oxo-4H-quinazolin-3-ylmethyl)-benzamide] | 
18 | 3000 | 2000 | 500 | COc1cc2ncn(Cc3ccc(C(=O)Nc4ccccc4N)cc3)c(=O)c2cc1OC [Cpd 338, N-(2-Amino-phenyl)-4-(6,7-dimethoxy-4-oxo-4H-quinazolin-3-ylmethyl)-benzamide] | 

Row | EC50 [1, 3] [nM] | IC50 [2, 4] [nM] | IC50 (HCT116 cells; HCT-116, 72 h, Table 5F) [nM] | Structure (SMILES) | further results
19 |  |  |  | Nc1ccccc1NC(=O)/C=C/c1ccc(NC/C=C/c2ccccc2)nc1 [Cpd 112] | EC50 [1, 9]: 5000 nM; IC50 [2, 10]: 2000 nM; IC50 (HCT116 cells; HCT-116, 72 h, Table 5c): 5000 nM
20 | 2000 | 300 | 1000 | Nc1ccccc1NC(=O)c1ccc(CSc2nc3ccc(NCc4cccnc4)cc3s2)cc1 [Cpd 325, N-(2-Amino-phenyl)-4-{6-[(pyridin-3-ylmethyl)-amino]-benzothiazol-2-ylsulfanylmethyl}-benzamide] | 
21 |  |  |  | Nc1ccccc1NC(=O)/C=C/c1ccc(NCc2cccc(OCC(F)(F)F)c2)nc1 [Cpd 525, N-(2-Amino-phenyl)-3-{6-[3-(2,2,2-trifluoro-ethoxy)-benzylamino]-pyridin-3-yl}-acrylamide] | EC50 [1, 5]: 5000 nM; IC50 [2, 6]: 3000 nM; IC50 (HCT116 cells; HCT-116, Table 5d): 4000 nM
22 | 1000 | 7000 | 400 | Nc1cscc1NC(=O)c1ccc(CNc2nc3ccc(OCCN4CCOCC4)cc3s2)cc1 [Cpd 573, N-(4-Amino-thiophen-3-yl)-4-{[6-(2-morpholin-4-yl-ethoxy)-benzothiazol-2-ylamino]-methyl}-benzamide] | 
23 | 2000 | 8000 | 1000 | Nc1ccccc1NC(=O)c1ccc(Cc2nc(CN3CCOCC3)cs2)cc1 [Cpd 252] | 
24 | 1000 | 3000 | 200 | Nc1ccccc1NC(=O)c1ccc(CNc2nc3ccccc3[nH]2)cc1 [Cpd 389] | 
25 |  |  |  | Nc1ccccc1NC(=O)/C=C/c1ccc(NCc2cc(F)cc(F)c2)nc1 [Cpd 100, N-(2-aminophenyl)-3-[6-(3,5-difluoro-benzylamino)-pyridin-3-yl]-acrylamide] | EC50 [1, 9]: 5000 nM; IC50 [2, 10]: 4000 nM; IC50 (HCT116 cells; HCT-116, 72 h, Table 5c): 3000 nM
26 |  |  |  | Nc1ccccc1NC(=O)/C=C/c1ccc(NCc2cccc(C(F)(F)F)c2)nc1 [Cpd 101, N-(2-aminophenyl)-3-[6-(3-trifluoromethyl-benzylamino)-pyridin-3-yl]-acrylamide] | EC50 [1, 9]: 5000 nM; IC50 [2, 10]: 3000 nM; IC50 (HCT116 cells; HCT-116, 72 h, Table 5c): 900 nM
27 | 1000 | 400 | 800 | COc1ccc(Cn2c(=O)n(Cc3ccc(C(=O)Nc4ccccc4N)cc3)c(=O)c3ccccc32)cc1 [Cpd 345, N-(2-Amino-phenyl)-4-[1-(4-methoxy-benzyl)-2,4-dioxo-1,4-dihydro-2H-quinazolin-3-ylmethyl]-benzamide] | 
28 |  |  |  | Nc1nc(NCCc2ccccc2F)nc(NCc2ccc(C(=O)Nc3ccccc3N)cc2)n1 [Cpd 24, 4-({4-Amino-6-[2-(2-fluoro-phenyl)-ethylamino]-[1,3,5]triazin-2-ylamino)-methyl)-N-(2-amino-phenyl)-benzamide] | EC50 [1, 7]: 1000 nM; IC50 [2, 8]: 3000 nM; IC50 (HCT116 cells; HCT-116, 72 h, Table 5a): 600 nM
29 | 5000 | 3000 | 600 | COc1cc(C#N)c(NCc2ccc(C(=O)Nc3ccccc3N)cc2)cc1OC [Cpd 404] | 
30 | 25000 | 3000 | 4000 | Nc1ccccc1NC(=O)c1ccc(-c2ccc(C(=O)Nc3ccccc3N)cc2)cc1 [Cpd 375, Biphenyl-4,4′-dicarboxylic acid bis-[(2-amino-phenyl)-amide]] | 
31 | 2000 | 2000 | 500 | Cc1cc(C)nc(NCc2ccc(C(=O)Nc3ccccc3N)cc2)c1 [Cpd 383, N-(2-Amino-phenyl)-4-[(4,6-dimethyl-pyridin-2-ylamino)-methyl]-benzamide] | 
32 | 1000 | 4000 | 300 | CN1C(=O)C2(OCCO2)c2cc(NCc3ccc(C(=O)Nc4ccccc4N)cc3)ccc21 [Cpd 459] | 
33 | 1000 | 500 | 300 | Nc1ccccc1NC(=O)c1ccc(Cc2coc3ccccc3c2=O)cc1 [compound 262, N-(2-Amino-phenyl)-4-(4-oxo-4H-chromen-3-ylmethyl)-benzamide] | 
34 | 3000 | 3000 | 600 | Nc1ccccc1NC(=O)c1ccc(CC2C(=O)c3ccccc3C2O)cc1 (stereo not drawn) [Cpd 365, N-(2-Amino-phenyl)-4-(1-hydroxy-3-oxo-indan-2-ylmethyl)-benzamide] | 
35 | 3000 | 2000 | 1000 | COc1ccc(CNC2(C#Cc3ccc(C(=O)Nc4ccccc4N)cc3)CCCCC2)cc1 [Cpd 192] | 
